Data taken from patent US20200405697A1, “Antitumor Agent” (Taiho Pharmaceutical Co., Ltd, priority 2017, published 2020).

Assays:
[1] = system: MV-4-11 (Human blood cancer cell line); test: Effect of combination of sulfonamide compound and other antitumor agent (CellTiter-Glo, combination index): MV-4-11
Method: (§1) Each cell line was seeded at 90 L/well to a 96-well culture plate (Thermo Fisher Scientific, Inc.) according to the above tables. The cell-seeded plate was cultured in an incubator set to 37° C. and 500 CO2. On the day following seeding, varying concentrations of the sulfonamide compound and the other antitumor agent were added in combination to the cells. […] The serial dilutions of each compound, or DW was added at 5μL/well to the plate such that each compound and DW, or the sulfonamide compound and the other antitumor agent were combined. […] The plate after the addition was cultured at 37° C. for 3 days under 5% CO2 conditions.
(§2) Three days later, CellTiter-Glo(R) 2.0 Reagent (Promega Corporation) was added at 100 μL/well, and the amount of luminescence was measured using a plate reader EnSpire(R) Multimode Plate Reader (PerkinElmer Co., Ltd.).
(§3) An average value from 3 wells was calculated as to each drug condition from the obtained data, and cell survival rate normalized against control wells supplemented with the vehicle (DW) was calculated. A Fa (fractional inhibition) value was calculated by subtracting the cell survival rate from 1.

[2] = system: A549 (Human lung cancer cell line); test: Effect of combination of sulfonamide compound and other antitumor agent (CellTiter-Glo, combination index): A549
Method: as §1, §2, §3

[3] = Example Compound 5 247 nM + Cytarabine 175 nM
[4] = Example Compound 5 555 nM + Cytarabine 393 nM
[5] = Example Compound 5 833 nM + Cytarabine 590 nM
[6] = Example Compound 5 1250 nM + Cytarabine 885 nM
[7] = Example Compound 14 519 nM + Cytarabine 175 nM
[8] = Example Compound 14 1170 nM + Cytarabine 394 nM
[9] = Example Compound 14 1750 nM + Cytarabine 589 nM
[10] = Example Compound 14 2630 nM + Cytarabine 886 nM
[11] = Example Compound 209A 96.6 nM + Cytarabine 175 nM
[12] = Example Compound 209A 217 nM + Cytarabine 393 nM
[13] = Example Compound 209A 326 nM + Cytarabine 590 nM
[14] = Example Compound 235A 90.1 nM + Cytarabine 116 nM
[15] = Example Compound 235A 135 nM + Cytarabine 174 nM
[16] = Example Compound 235A 304 nM + Cytarabine 393 nM
[17] = Example Compound 235A 456 nM + Cytarabine 589 nM
[18] = Example Compound 235A 684 nM + Cytarabine 884 nM
[19] = Example Compound 14 874 nM + Cytarabine 72.2 nM
[20] = Example Compound 14 1310 nM + Cytarabine 108 nM
[21] = Example Compound 14 1970 nM + Cytarabine 163 nM
[22] = Example Compound 14 2950 nM + Cytarabine 244 nM
[23] = Example Compound 14 4420 nM + Cytarabine 365 nM
[24] = Example Compound 209A 188 nM + Cytarabine 72.2 nM
[25] = Example Compound 209A 282 nM + Cytarabine 108 nM
[26] = Example Compound 209A 635 nM + Cytarabine 244 nM
[27] = Example Compound 209A 952 nM + Cytarabine 365 nM
[28] = Example Compound 235A 780 nM + Cytarabine 111 nM
[29] = Example Compound 235A 1170 nM + Cytarabine 166 nM
[30] = Example Compound 235A 1750 nM + Cytarabine 249 nM
[31] = Example Compound 5 370 nM + Fludarabine nucleoside 6150 nM
[32] = Example Compound 5 555 nM + Fludarabine nucleoside 9220 nM
[33] = Example Compound 14 778 nM + Fludarabine nucleoside 6150 nM
[34] = Example Compound 14 1170 nM + Fludarabine nucleoside 9250 nM
[35] = Example Compound 235A 304 nM + Fludarabine nucleoside 9220 nM
[36] = Example Compound 14 874 nM + Fludarabine nucleoside 5930 nM
[37] = Example Compound 14 1310 nM + Fludarabine nucleoside 8890 nM
[38] = Example Compound 14 1970 nM + Fludarabine nucleoside 13400 nM
[39] = Example Compound 14 2950 nM + Fludarabine nucleoside 20000 nM
[40] = Example Compound 209A 188 nM + Fludarabine nucleoside 5930 nM
[41] = Example Compound 209A 282 nM + Fludarabine nucleoside 8890 nM
[42] = Example Compound 209A 635 nM + Fludarabine nucleoside 20000 nM
[43] = Example Compound 235A 520 nM + Fludarabine nucleoside 8870 nM
[44] = Example Compound 235A 780 nM + Fludarabine nucleoside 13300 nM
[45] = Example Compound 235A 1170 nM + Fludarabine nucleoside 20000 nM
[46] = Example Compound 235A 1750 nM + Fludarabine nucleoside 29900 nM

SMILES: Nc1ccn([C@@H]2O[C@H](CO)[C@@H](O)[C@@H]2O)c(=O)n1 [Cytarabine, cytarabine]
- CI value [1, 3]: 0.638
- Fa value [1, 3]: 0.4093
- CI value [1, 4]: 0.553
- Fa value [1, 4]: 0.9212
- CI value [1, 5]: 0.366
- Fa value [1, 5]: 0.9948
- CI value [1, 6]: 0.386
- Fa value [1, 6]: 0.9986
- CI value [1, 7]: 0.766
- Fa value [1, 7]: 0.2908
- CI value [1, 8]: 0.599
- Fa value [1, 8]: 0.8743
- CI value [1, 9]: 0.387
- Fa value [1, 9]: 0.9860
- CI value [1, 10]: 0.269
- Fa value [1, 10]: 0.9984
- CI value [1, 11]: 0.739
- Fa value [1, 11]: 0.5055
- CI value [1, 12]: 0.510
- Fa value [1, 12]: 0.9736
- CI value [1, 13]: 0.330
- Fa value [1, 13]: 0.9981
- CI value [1, 14]: 0.740
- Fa value [1, 14]: 0.1704
- CI value [1, 15]: 0.645
- Fa value [1, 15]: 0.4683
- CI value [1, 16]: 0.510
- Fa value [1, 16]: 0.9522
- CI value [1, 17]: 0.365
- Fa value [1, 17]: 0.9958
- CI value [1, 18]: 0.374
- Fa value [1, 18]: 0.9989
- CI value [2, 19]: 0.670
- Fa value [2, 19]: 0.3745
- CI value [2, 20]: 0.790
- Fa value [2, 20]: 0.4356
- CI value [2, 21]: 0.616
- Fa value [2, 21]: 0.6170
- CI value [2, 22]: 0.498
- Fa value [2, 22]: 0.7754
- CI value [2, 23]: 0.490
- Fa value [2, 23]: 0.8591
- CI value [2, 24]: 0.777
- Fa value [2, 24]: 0.3588
- CI value [2, 25]: 0.759
- Fa value [2, 25]: 0.4675
- CI value [2, 26]: 0.474
- Fa value [2, 26]: 0.7994
- CI value [2, 27]: 0.574
- Fa value [2, 27]: 0.8410
- CI value [2, 28]: 0.878
- Fa value [2, 28]: 0.4015
- CI value [2, 29]: 0.693
- Fa value [2, 29]: 0.6327
- CI value [2, 30]: 0.581
- Fa value [2, 30]: 0.8184

SMILES: Nc1nc(F)nc2c1ncn2[C@@H]1O[C@H](CO)[C@@H](O)[C@@H]1O [Fludarabine nucleoside, fludarabine nucleoside]
- CI value [1, 31]: 0.739
- Fa value [1, 31]: 0.6600
- CI value [1, 32]: 0.293
- Fa value [1, 32]: 0.9981
- CI value [1, 33]: 0.786
- Fa value [1, 33]: 0.5954
- CI value [1, 34]: 0.296
- Fa value [1, 34]: 0.9984
- CI value [1, 35]: 0.320
- Fa value [1, 35]: 0.9988
- CI value [2, 36]: 0.549
- Fa value [2, 36]: 0.3063
- CI value [2, 37]: 0.387
- Fa value [2, 37]: 0.7007
- CI value [2, 38]: 0.377
- Fa value [2, 38]: 0.8610
- CI value [2, 39]: 0.537
- Fa value [2, 39]: 0.8736
- CI value [2, 40]: 0.558
- Fa value [2, 40]: 0.3666
- CI value [2, 41]: 0.386
- Fa value [2, 41]: 0.7059
- CI value [2, 42]: 0.515
- Fa value [2, 42]: 0.8634
- CI value [2, 43]: 0.568
- Fa value [2, 43]: 0.4460
- CI value [2, 44]: 0.423
- Fa value [2, 44]: 0.7798
- CI value [2, 45]: 0.504
- Fa value [2, 45]: 0.8525
- CI value [2, 46]: 0.734
- Fa value [2, 46]: 0.8595
